Data on two compounds can be found in publication PMC6526530 (Biological & pharmaceutical bulletin, 2009).

The target of data set [1] is T1, P-glycoprotein (ABCB1/MDR1) (Homo sapiens, UniProt P08183). Nature of the data set: inhibition of transepithelial DRV transport in L-MDR1 monolayers. The class given is cell-based.
The target in data set [2] is T1, P-glycoprotein (ABCB1/MDR1). Nature of the data set: transepithelial transport in L-MDR1 vs LLC-PK1 monolayers. It is filed as cell-based.

pIC50: −log10 of the molar value.

T1 sequence (P08183 whole entry): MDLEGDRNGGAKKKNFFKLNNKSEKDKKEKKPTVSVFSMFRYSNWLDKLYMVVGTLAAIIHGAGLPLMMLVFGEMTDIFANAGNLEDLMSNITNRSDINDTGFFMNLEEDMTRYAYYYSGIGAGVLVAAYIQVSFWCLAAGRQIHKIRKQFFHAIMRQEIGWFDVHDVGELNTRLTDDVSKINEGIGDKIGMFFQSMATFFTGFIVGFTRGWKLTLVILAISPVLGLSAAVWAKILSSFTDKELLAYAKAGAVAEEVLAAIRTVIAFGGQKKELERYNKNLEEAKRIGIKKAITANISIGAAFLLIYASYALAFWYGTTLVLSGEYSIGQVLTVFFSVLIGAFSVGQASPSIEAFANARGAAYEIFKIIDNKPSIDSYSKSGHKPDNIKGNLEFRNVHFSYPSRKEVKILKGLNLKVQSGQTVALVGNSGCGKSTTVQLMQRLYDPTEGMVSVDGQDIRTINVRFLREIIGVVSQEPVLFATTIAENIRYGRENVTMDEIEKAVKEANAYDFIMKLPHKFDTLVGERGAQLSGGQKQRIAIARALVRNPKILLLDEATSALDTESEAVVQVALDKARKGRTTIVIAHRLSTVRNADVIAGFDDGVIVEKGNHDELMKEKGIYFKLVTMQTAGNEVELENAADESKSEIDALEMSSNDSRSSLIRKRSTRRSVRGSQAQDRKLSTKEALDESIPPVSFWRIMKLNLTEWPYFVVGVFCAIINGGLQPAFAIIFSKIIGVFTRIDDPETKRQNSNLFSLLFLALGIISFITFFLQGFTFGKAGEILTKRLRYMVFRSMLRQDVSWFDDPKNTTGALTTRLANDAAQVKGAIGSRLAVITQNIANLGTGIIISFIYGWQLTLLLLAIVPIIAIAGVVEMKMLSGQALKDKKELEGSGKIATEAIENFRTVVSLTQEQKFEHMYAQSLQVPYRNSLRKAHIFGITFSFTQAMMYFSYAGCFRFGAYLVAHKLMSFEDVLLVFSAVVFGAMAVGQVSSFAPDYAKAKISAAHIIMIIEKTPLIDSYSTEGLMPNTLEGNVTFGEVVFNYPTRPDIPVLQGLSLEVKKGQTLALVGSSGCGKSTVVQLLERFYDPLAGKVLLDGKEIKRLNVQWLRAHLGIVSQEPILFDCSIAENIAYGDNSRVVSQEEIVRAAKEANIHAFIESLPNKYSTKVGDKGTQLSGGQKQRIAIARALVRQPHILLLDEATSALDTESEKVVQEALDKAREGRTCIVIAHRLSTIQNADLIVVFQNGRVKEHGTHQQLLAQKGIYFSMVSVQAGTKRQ

In the case of `Cc1c(O)cccc1C(=O)N[C@@H](CSc1ccccc1)[C@H](O)CN1C[C@H]2CCCC[C@H]2C[C@H]1C(=O)NC(C)(C)C` [NFV, Nelfinavir], the “inhibition of transepithelial DRV transport in L-MDR1 monolayers” value in data set [1] is “showed NFV to have a potent inhibitory effect on P-glycoprotein-mediated transport of DRV when compared to RTV and SQV”. For orientation: pIC50 means −log10 of the IC50, conventionally taken in molar units. In turn, `CC(C)CN(C[C@@H](O)[C@H](Cc1ccccc1)NC(=O)O[C@H]1CO[C@H]2OCC[C@H]21)S(=O)(=O)c1ccc(N)cc1` [DRV, Darunavir] showed a pIC50 in data set [2] of 3.92.
